According to US11571407B2, “Bicalutamide analogs or (S)-bicalutamide as exocytosis activating compounds for use in the treatment of a lysosomal storage disorder or glycogenosis” (BCN PEPTIDES, S.A., priority 2013, dated 2023):
Marks after values point to notes of the source that are not given here.

Legend:
[1] = tested on: fibroblasts from patients affected by different lysosomal storage diseases; assay: Determination of lysosomal exocytosis (β-hexosaminidase activity in the culture medium); assay type: cell-based, human; settings: vs untreated
Experimental: (§1) Fibroblasts from thirteen patients affected by seven different lysosomal storage diseases (Fabry, Gaucher, Hurler, Niemann-Pick type A/B, Sanfilippo A, Sanfilippo B and Tay-Sachs) were cultured in DMEM (Dulbecco's modified Eagles medium) with 10% fetal bovine serum and in the presence of antibiotics (penicillin and streptomycin), at 37° C. with 5% CO2. All reagents were purchased from PAA Laboratories (Velizy-Villacoublay, France). The fibroblasts of the patients were selected on the basis of availability of fibroblasts and measurable residual activity. The use of human samples was approved by the Ethical Committee of Hospital Clinic, Barcelona
Fibroblasts cultured for 72 h in 24 well-plates in the presence or absence of bicalutamide, (S)-bicalutamide, (S)-bicalutamide analogs or (R)-bicalutamide at different concentrations in triplicate (10 nmol/L, 100 nmol/L, 1 μmol/L, 10 μmol/L, 50 μmol/L and 100 μmol/L), were rinsed with physiological saline. The cells were lysed by using 3 freeze-thaw cycles. Then protein concentration was determined by using the Lowry method. Protein lysates (10 μg) were seeded in 96-well plates and the enzymatic activity of the enzyme involved in each disease was determined in triplicate by means of fluorimetric artificial substrates: 4-methylumbelliferyl-α-N-sulphoglucosaminide for Sanfilippo A, 4-methylumbelliferyl-2-acetamido-2 deoxy-α-D-glucopyranoside for Sanfilippo B, 4-methylumbelliferyl-α-L-iduronide for Hurler, 4-methylumbelliferyl-N-acetyl-β-D-glucosaminide for Tay-sachs, 4-methylumbelliferyl-β-D-glucopyranoside for Gaucher, 4-methylumbelliferyl-α-Galactopiranosid for Fabry disease, and 6-hexadecanoylamino-4-methylumbelliferyl-P-colline for Niemann-Pick type AB. The activity of the enzyme β-hexosaminidase was assayed by using 4-methylumbelliferyl-2 acetamido-2 deoxy-β-D-glucopyranoside as artificial substrate [Annunziata et al., Study of influence of sex and age on human serum lysosomal enzymes by using 4-methylumbelliferyl substrates. Clin. Chim. Acta.
Lysosomal exocytosis was monitorized by measuring the enzymatic activity of the lysosomal enzyme β-hexosaminidase in the culture medium [Xu M, et al, δ-Tocopherol reduces lipid accumulation in Niemann-Pick type C1 and Wolman cholesterol storage disorders. […] The fibroblasts were previously treated with different concentrations of bicalutamide, (S)-bicalutamide or (R)-bicalutamide (10 nmol/L, 100 nmol/L, 1 μmol/L, 10 μmol/L, 50 μmol/L and 100 μmol/L) in triplicate in 24-well plates. At 0, 24, 48 and 72 hours, 30 μL of culture medium was aliquoted for the subsequent β-hexosaminidase activity assay.
Fibroblasts from two patients affected by Sanfilippo B and Hurler diseases were treated with different concentrations of bicalutamide (racemic mixture at increasing concentrations of 0.01, 0.1, 1, 10 and 100 μM). And the increase in lysosomal exocytosis was determined by analyzing the enzymatic activity of the lysosomal enzyme β-hexosaminidase in the culture medium.
Fibroblasts from thirteen patients affected by different lysosomal storage diseases (four Sanfilippo B disease patients with different genotypes, three Sanfilippo A disease patients with different genotypes, two Tay-Sachs disease patients with the same genotype, one Gaucher disease patient, one Niemann-pick type A/B disease patient, one Hurler disease patient, and one Fabry disease patient) were independently treated with different concentrations of (R)- and (S)-bicalutamide (50 and 100 μM) for 72 hours.

[2] = tested on: fibroblasts from patients affected by different lysosomal storage diseases; assay: Determination of glycosaminoglycans (GAGs), 1,9-dimethylmethylene blue (DMB) assay; assay type: cell-based, human; settings: vs untreated
Experimental: as §1
Glycobiology. […] The fibroblasts were cultured in triplicate in 6-well plates and they were harvested 72 hours after treatment. DMB absorbance was measured in duplicate at 656 nm with a microplate reader (POLARstar Omega, BMG LABTECH, Offenburg, Germany).
Fibroblasts from three patients affected by Sanfilippo B disease and one patient affected by Hurler disease were treated with increasing concentrations of bicalutamide (racemic mixture at increasing concentrations of 0.01, 0.1, 1, 10 and 100 μM). Glycosaminoglycans (GAGs) levels were quantified with the 1,9-dimethylmethylene blue (DMB) assay.
Fibroblasts from seven patients affected by different diseases derived from lysosomal storage (three Sanfilippo B disease patients with different genotypes, one Sanfilippo A disease patient, one Tay-Sachs disease patient, one Niemann-Pick type A/B disease patient and one Hurler disease patient) were independently treated with different concentrations of (R)- and (S)-bicalutamide (50 and 100 μM).

With `CC(O)(CS(=O)(=O)c1ccc(F)cc1)C(=O)Nc1ccc(C#N)c(C(F)(F)F)c1` (racemic) [Racemic Bicalutamide] the “Increase in lysosomal Exocytosis (%)” value ([1]; Table 1 patient 1, Sanfilippo B fibroblasts, 10 nM) was 31* %, the “Increase in lysosomal Exocytosis (%)” value ([1]; Table 1 patient 1, Sanfilippo B fibroblasts, 100 nM) was 23* % and the “Increase in lysosomal Exocytosis (%)” value ([1]; Table 1 patient 1, Sanfilippo B fibroblasts, 1 μM) was 49%. The “Increase in lysosomal Exocytosis (%)” value ([1]; Table 1 patient 1, Sanfilippo B fibroblasts, 10 μM) was 45%, the “Increase in lysosomal Exocytosis (%)” value ([1]; Table 1 patient 1, Sanfilippo B fibroblasts, 100 μM) was 100* % and the “Increase in lysosomal Exocytosis (%)” value ([1]; Table 1 patient 2, Hurler fibroblasts, 10 nM) was 14%. The “Increase in lysosomal Exocytosis (%)” value ([1]; Table 1 patient 2, Hurler fibroblasts, 100 nM) was 13%, the “Increase in lysosomal Exocytosis (%)” value ([1]; Table 1 patient 2, Hurler fibroblasts, 1 μM) was 9% and the “Increase in lysosomal Exocytosis (%)” value ([1]; Table 1 patient 2, Hurler fibroblasts, 10 μM) was 3%. For the same compound, the “Increase in lysosomal Exocytosis (%)” value ([1]; Table 1 patient 2, Hurler fibroblasts, 100 μM) was 8%, the “Increase in lysosomal Exocytosis (%)” value ([1]; Table 1 patient 3, Control fibroblasts, 10 nM) was 0% and the “Increase in lysosomal Exocytosis (%)” value ([1]; Table 1 patient 3, Control fibroblasts, 100 nM) was 27%. The “Increase in lysosomal Exocytosis (%)” value ([1]; Table 1 patient 3, Control fibroblasts, 1 μM) was 13%, the “Increase in lysosomal Exocytosis (%)” value ([1]; Table 1 patient 3, Control fibroblasts, 10 μM) was 12* % and the “Increase in lysosomal Exocytosis (%)” value ([1]; Table 1 patient 3, Control fibroblasts, 100 μM) was 13* %. The “Decrease of GAGs (%)” value ([2]; Table 2 patient 1, Sanfilippo B fibroblasts, 10 nM) was 17%, the “Decrease of GAGs (%)” value ([2]; Table 2 patient 1, Sanfilippo B fibroblasts, 100 nM) was 25% and the “Decrease of GAGs (%)” value ([2]; Table 2 patient 1, Sanfilippo B fibroblasts, 1 μM) was 17%. For the same compound, the “Decrease of GAGs (%)” value ([2]; Table 2 patient 1, Sanfilippo B fibroblasts, 10 μM) was 22* %, the “Decrease of GAGs (%)” value ([2]; Table 2 patient 1, Sanfilippo B fibroblasts, 100 μM) was 54* % and the “Decrease of GAGs (%)” value ([2]; Table 2 patient 2, Sanfilippo B fibroblasts, 10 nM) was 0%. The “Decrease of GAGs (%)” value ([2]; Table 2 patient 2, Sanfilippo B fibroblasts, 100 nM) was 16%, the “Decrease of GAGs (%)” value ([2]; Table 2 patient 2, Sanfilippo B fibroblasts, 1 μM) was 0% and the “Decrease of GAGs (%)” value ([2]; Table 2 patient 2, Sanfilippo B fibroblasts, 10 μM) was 0%. The “Decrease of GAGs (%)” value ([2]; Table 2 patient 2, Sanfilippo B fibroblasts, 100 μM) was 20%, the “Decrease of GAGs (%)” value ([2]; Table 2 patient 3, Sanfilippo B fibroblasts, 10 nM) was 53% and the “Decrease of GAGs (%)” value ([2]; Table 2 patient 3, Sanfilippo B fibroblasts, 100 nM) was 13%. The “Decrease of GAGs (%)” value ([2]; Table 2 patient 3, Sanfilippo B fibroblasts, 1 μM) was 33%, the “Decrease of GAGs (%)” value ([2]; Table 2 patient 3, Sanfilippo B fibroblasts, 10 μM) was 33% and the “Decrease of GAGs (%)” value ([2]; Table 2 patient 3, Sanfilippo B fibroblasts, 100 μM) was 0%. For the same compound, the “Decrease of GAGs (%)” value ([2]; Table 2 patient 4, Hurler fibroblasts, 10 nM) was 0%, the “Decrease of GAGs (%)” value ([2]; Table 2 patient 4, Hurler fibroblasts, 100 nM) was 0% and the “Decrease of GAGs (%)” value ([2]; Table 2 patient 4, Hurler fibroblasts, 1 μM) was 0%. For the same compound, the “Decrease of GAGs (%)” value ([2]; Table 2 patient 4, Hurler fibroblasts, 10 μM) was 0%, the “Decrease of GAGs (%)” value ([2]; Table 2 patient 4, Hurler fibroblasts, 100 μM) was 0% and the “Decrease of GAGs (%)” value ([2]; Table 2 patient 5, Control fibroblasts, 10 nM) was 0%. For the same compound, the “Decrease of GAGs (%)” value ([2]; Table 2 patient 5, Control fibroblasts, 100 nM) was 0%, the “Decrease of GAGs (%)” value ([2]; Table 2 patient 5, Control fibroblasts, 1 μM) was 0% and the “Decrease of GAGs (%)” value ([2]; Table 2 patient 5, Control fibroblasts, 10 μM) was 0%. For the same compound, the “Decrease of GAGs (%)” value ([2]; Table 2 patient 5, Control fibroblasts, 100 μM) was 0%.
